Key:
[1] = tested on: Herpes simplex virus type II 196; assay: anti-Herpes virus activity in mice; format: in vivo
[2] = tested on: Staphylococcus epidermidis ATCC14990; assay: minimum growth inhibitory concentration; format: cell-based; conditions: nutrient agar
Excerpt: (§1) Table 1 below summarizes the minimum growth inhibitory concentrations of the BN-183B substance on various microorganisms.
(§2) The culture media used were a nutrient agar (a product of Difco).

[3] = tested on: Escherichia coli K-12 IAM 1264; assay: minimum growth inhibitory concentration; format: cell-based; conditions: nutrient agar
Excerpt: as §1, §2

[4] = tested on: Proteus vulgaris OX19; assay: minimum growth inhibitory concentration; format: cell-based; conditions: nutrient agar
Excerpt: as §1, §2

[5] = tested on: Staphylococcus aureus Smith S-424; assay: minimum growth inhibitory concentration; format: cell-based; conditions: nutrient agar
Excerpt: as §1, §2

[6] = tested on: Staphylococcus aureus 209P JC-1; assay: minimum growth inhibitory concentration; format: cell-based; conditions: nutrient agar
Excerpt: as §1, §2

[7] = tested on: Staphylococcus faecalis ATCC8043; assay: minimum growth inhibitory concentration; format: cell-based; conditions: nutrient agar
Excerpt: as §1, §2

[8] = tested on: Escherichia coli NIHJ JC-2; assay: minimum growth inhibitory concentration; format: cell-based; conditions: nutrient agar
Excerpt: as §1, §2

[9] = solubility; format: physicochemical; conditions: hydrochloride
[10] = tested on: Gram-positive and Gram-negative bacteria; assay: growth inhibition of various microorganisms (overall); format: cell-based; conditions: overall result in words
Excerpt: as §1, §2

[11] = tested on: Infectious hematopoietic necrosis (IHN) virus of rainbow trout; assay: antiviral activity by tissue culture test; format: cell-based; conditions: dose 0.5 mcg/m
[12] = tested on: DNA-type and RNA-type viruses; assay: antiviral activity by tissue culture test (overall); format: cell-based; conditions: overall result in words
[13] = tested on: Infectious pancreatic necrosis (IPN) virus of rainbow trout; assay: antiviral activity by tissue culture test; format: cell-based; conditions: dose 0.5 mcg/m
[14] = tested on: Bacillus subtilis ATCC 6633; assay: paper disc method, inhibitory zone; format: cell-based; conditions: pure product, 20 to 500 mcg/ml
Protocol: In assaying the BN-183B substance, its anti-bacterial activity is utilized and Bacillus subtilis ATCC 6633 is used as an assaying strain. A mixture of 2% of mycin assay agar (a product of Kyoei Seiyaku K.K.) and 0.5% of bacto-agar (a product of Difco) is used as an assaying culture medium. When BN-183B substance (pure product) is assayed under the above conditions, the relation between the logarithm of the concentration within the range of 20 to 500 mcg/ml and the diameter of the inhibitory zone is linear, and an inhibitory zone having a diameter of 16 to 29 mm is given corresponding to the above concentration range (paper disc method).

[15] = LD50 in mice; format: in vivo
[16] = tested on: Lymphocytic leukemia P-388; assay: increase in life span of mice transplanted intraperitoneally with P-388; format: in vivo
Protocol: (§3) Lymphocytic leukemia P-388 or lymphoid leukemia L-1210 cells were transplanted intraperitoneally in an amount of 1×10^6 per mouse into CDF1 mice or BDF1 mice (about 5 weeks old, body weight 20±1 g), five in one group. Twenty-four hours after the transplantation of the tumor, a solution of the BN-183B substance in distilled water for injection was administered intraperitoneally to the mice once a day for three successive days. The percent increase in life span (i.e., ILS) was measured by comparing the average number of days of survival of each treated group with that of a control group to which the BN-183B substance was not administered.

[17] = tested on: Influenza virus A0/PR-8; format: cell-based; conditions: dose 3.9 mcg/m
[18] = tested on: Herpes virus type II 196; assay: antiviral activity by tissue culture test; format: cell-based; conditions: dose 3.9 mcg/m
[19] = tested on: Newcastle disease virus Miyadera; format: cell-based; conditions: dose 3.9 mcg/m
[20] = tested on: lymphoid leukemia L-1210; assay: increase in life span of mice transplanted intraperitoneally with L-1210; format: in vivo
Protocol: as §3

[21] = tested on: Vaccinia virus Lister; format: cell-based; conditions: dose 3.9 mcg/m

## O=c1[nH]c(=O)n([C@H]2C[C@H](O)[C@@H](CO)O2)cc1I [IUDR, 5-iodo-2'-deoxyuridine, reference compound]
[1]; 100 mg/kg i.p.
  ET50 (number of days of 50% survival): 8.50 days
[1]; 100 mg/kg i.p., day 5 from inoculation
  Cumulative Mortality: 0%
[1]; 100 mg/kg i.p., day 6 from inoculation
  Cumulative Mortality: 0%
[1]; 100 mg/kg i.p., day 7 from inoculation
  Cumulative Mortality: 30%
[1]; 100 mg/kg i.p., day 8 from inoculation
  Cumulative Mortality: 40%
[1]; 100 mg/kg i.p., day 9 from inoculation
  Cumulative Mortality: 60%
[1]; 100 mg/kg i.p., day 10 from inoculation
  Cumulative Mortality: 70%
[1]; 100 mg/kg i.p., day 11 from inoculation
  Cumulative Mortality: 70%
[1]; 100 mg/kg i.p., day 12 from inoculation
  Cumulative Mortality: 70%
[1]; 100 mg/kg i.p., day 13 from inoculation
  Cumulative Mortality: 70%
[1]; 100 mg/kg i.p., day 14 from inoculation
  Cumulative Mortality: 70%

## C[C@H](N)C(=O)N[C@@H]1[C@H]2C(=C(O)C[C@@H](O)[C@@H]2O)C(=O)O[C@]1(C)C(Cl)Cl [BN-183B substance]
[2]
  Minimum Growth Inhibitory Concentration: 0.20 µg/mL
[3]
  Minimum Growth Inhibitory Concentration: 0.78 µg/mL
[4]
  Minimum Growth Inhibitory Concentration: 6.25 µg/mL
[5]
  Minimum Growth Inhibitory Concentration: 0.20 µg/mL
[6]
  Minimum Growth Inhibitory Concentration: 0.20 µg/mL
[7]
  Minimum Growth Inhibitory Concentration: 0.39 µg/mL
[8]
  Minimum Growth Inhibitory Concentration: 1.56 µg/mL
[9]; acetone
  Solubility in acetone: scarcely soluble
[9]; chloroform
  Solubility in chloroform: scarcely soluble
[9]; ethyl acetate
  Solubility in ethyl acetate: scarcely soluble
[9]; methanol
  Solubility in methanol: slightly soluble
[9]; water
  Solubility in water: Very soluble
[10]
  inhibitory activity on Gram-positive and Gram-negative bacteria: strong inhibitory activity
[11]
  Difference of Log TCID50/ml from the Control: 3.000 Log TCID50/ml
[12]
  activity against DNA-type and RNA-type viruses: very strong activity
[13]
  Difference of Log TCID50/ml from the Control: 6.801 Log TCID50/ml
[14]
  diameter of the inhibitory zone: 16 to 29 mm
[15]; intramuscular
  LD50: 4.1 mg/kg
[15]; intraperitoneal
  LD50: 4.3 mg/kg
[15]; intravenous
  LD50: 4.1 mg/kg
[15]; oral
  LD50: 50 mg/kg
[15]; subcutaneous
  LD50: 6.0 mg/kg
[16]; P-388, 0.25 mg/kg i.p. once a day for three days
  Percent Increase in Life Span: 32.1%
[16]; P-388, 0.5 mg/kg i.p. once a day for three days
  Percent Increase in Life Span: 41.5%
[16]; P-388, 1 mg/kg i.p. once a day for three days
  Percent Increase in Life Span: 54.7%
[16]; P-388, 2 mg/kg i.p. once a day for three days
  Percent Increase in Life Span: 79.2%
[16]; P-388, 4 mg/kg i.p. once a day for three days
  Percent Increase in Life Span: 66.0%
[17]
  Difference of Log TCID50/ml from the Control: 2.50
[18]
  Difference of Log TCID50/ml from the Control: 3.83 Log TCID50/ml
[19]
  Difference of Log TCID50/ml from the Control: 6.00 Log TCID50/ml
[20]; L-1210, 0.25 mg/kg i.p. once a day for three days
  Percent Increase in Life Span: 10.8%
[20]; L-1210, 0.5 mg/kg i.p. once a day for three days
  Percent Increase in Life Span: 35.1%
[20]; L-1210, 1 mg/kg i.p. once a day for three days
  Percent Increase in Life Span: 32.4%
[20]; L-1210, 2 mg/kg i.p. once a day for three days
  Percent Increase in Life Span: 45.9%
[20]; L-1210, 4 mg/kg i.p. once a day for three days
  Percent Increase in Life Span: 59.5%
[21]
  Difference of Log TCID50/ml from the Control: < 3.00 Log TCID50/ml
[1]; 1.25 mg/kg BN-183B vs 100 mg/kg IUDR, i.p.
  anti-Herpes virus effect compared with IUDR: the same effect as in the group to which 100 mg/kg of IUDR was administered
[1]; 1.25 mg/kg i.p.
  ET50 (number of days of 50% survival): 8.38 days
[1]; 1.25 mg/kg i.p., day 5 from inoculation
  Cumulative Mortality: 0%
[1]; 1.25 mg/kg i.p., day 6 from inoculation
  Cumulative Mortality: 20%
[1]; 1.25 mg/kg i.p., day 7 from inoculation
  Cumulative Mortality: 20%
[1]; 1.25 mg/kg i.p., day 8 from inoculation
  Cumulative Mortality: 60%
[1]; 1.25 mg/kg i.p., day 9 from inoculation
  Cumulative Mortality: 70%
[1]; 1.25 mg/kg i.p., day 10 from inoculation
  Cumulative Mortality: 70%
[1]; 1.25 mg/kg i.p., day 11 from inoculation
  Cumulative Mortality: 80%
[1]; 1.25 mg/kg i.p., day 12 from inoculation
  Cumulative Mortality: 90%
[1]; 1.25 mg/kg i.p., day 13 from inoculation
  Cumulative Mortality: 90%
[1]; 1.25 mg/kg i.p., day 14 from inoculation
  Cumulative Mortality: 90%
[1]; 2.5 mg/kg i.p.
  ET50 (number of days of 50% survival): 7.65 days
[1]; 2.5 mg/kg i.p., day 5 from inoculation
  Cumulative Mortality: 0%
[1]; 2.5 mg/kg i.p., day 6 from inoculation
  Cumulative Mortality: 10%
[1]; 2.5 mg/kg i.p., day 7 from inoculation
  Cumulative Mortality: 20%
[1]; 2.5 mg/kg i.p., day 8 from inoculation
  Cumulative Mortality: 70%
[1]; 2.5 mg/kg i.p., day 9 from inoculation
  Cumulative Mortality: 80%
[1]; 2.5 mg/kg i.p., day 10 from inoculation
  Cumulative Mortality: 100%

Source: patent publication US4283389A, “Novel antibiotic, BN-183B substance” (Meiji Seika Kaisha Ltd., priority 1978, dated 1981)
